Measured values taken from patent US20080090805A1, “CB-1 MODULATING COMPOUNDS AND THEIR USE” (ACADIA PHARMACEUTICALS INC., priority 2005, published 2008).

Molecular target: native CB1 receptors (Rattus norvegicus, UniProt P20272)
Assay: CB1 receptor rat binding assay ([3H]SR141716A, rat brain membranes)
Details: rat brain membranes, [3H]SR141716A; for Ki: read-out: Binding rat pKi (converted)

Chain of native CB1 receptors (P20272 whole entry): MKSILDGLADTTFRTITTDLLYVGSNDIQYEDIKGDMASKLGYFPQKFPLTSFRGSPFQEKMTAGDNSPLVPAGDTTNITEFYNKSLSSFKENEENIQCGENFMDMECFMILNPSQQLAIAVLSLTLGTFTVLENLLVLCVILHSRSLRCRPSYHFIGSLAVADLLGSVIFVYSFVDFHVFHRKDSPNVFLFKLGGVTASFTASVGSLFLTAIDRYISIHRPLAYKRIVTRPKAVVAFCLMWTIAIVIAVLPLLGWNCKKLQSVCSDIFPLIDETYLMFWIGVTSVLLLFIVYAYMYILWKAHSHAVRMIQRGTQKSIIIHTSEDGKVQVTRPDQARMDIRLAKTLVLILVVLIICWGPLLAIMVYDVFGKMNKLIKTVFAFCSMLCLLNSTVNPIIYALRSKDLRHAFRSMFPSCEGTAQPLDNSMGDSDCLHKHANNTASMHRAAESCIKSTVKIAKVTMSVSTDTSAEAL

O=C(NCc1ccco1)c1ccc2c(c1)N=C(c1ccc(F)cc1)c1ccccc1S2 [drawing 1370]
Binding rat Inh %: 103% | Ki: 5.01 nM

Cc1cnc(-c2ccc3c(c2)N=C(c2ccc(Cl)cc2)c2ccccc2S3)[nH]1 [drawing 1371]
Binding rat Inh %: 84% | Ki: 31.6 nM

CC(C)NC(=O)c1ccc2c(c1)N=C(c1ccc(Cl)cc1)c1ccccc1S2 [drawing 1372]
Binding rat Inh %: 90% | Ki: 31.6 nM

O=C(NN1CCCCC1)c1ccc2c(c1)N=C(c1ccc(Cl)cn1)c1ccccc1S2 [drawing 1373]
Binding rat Inh %: 95% | Ki: 31.6 nM

O=C(NN1CCCCC1)c1ccc2c(c1)N=C(c1cccc(F)c1)c1ccccc1S2 [drawing 1374]
Binding rat Inh %: 94% | Ki: 31.6 nM

O=C(NCc1cccc(Cl)c1)c1ccc2c(c1)N=C(c1cccc(Cl)c1)c1cc(F)ccc1S2 [drawing 1375]
Ki: 5.01 nM

O=C(NCCc1ccc(Cl)cc1)c1ccc2c(c1)N=C(c1ccc(Cl)cc1)c1ccccc1S2 [drawing 1376]
Ki: 5.01 nM

O=C(NCCC(F)(F)F)c1ccc2c(c1)N=C(c1ccc(Cl)cc1F)c1ccccc1S2 [drawing 1377]
Binding rat Inh %: 97% | Ki: 5.01 nM

CCCCNC(=O)c1ccc2c(c1)N=C(c1ccc(Br)cn1)c1ccccc1S2 [drawing 1378]
Binding rat Inh %: 83% | Ki: 5.01 nM

CC(NC(=O)c1ccc2c(c1)N=C(c1ccccc1)c1ccccc1S2)c1ccccc1 (centres unmarked) [drawing 1379]
Ki: 31.6 nM

O=C(NN1CCCCC1)c1ccc2c(c1)N=C(c1cccc(Cl)c1)c1ccccc1S2 [drawing 1380]
Binding rat Inh %: 79% | Ki: 31.6 nM

O=C(NCc1cccs1)c1ccc2c(c1)N=C(c1ccccn1)c1ccccc1S2 [drawing 1381]
Binding rat Inh %: 109% | Ki: 31.6 nM

Cc1ccsc1C1=Nc2cc(C(=O)NC3CCCC3)ccc2Sc2ccccc21 [drawing 1382]
Binding rat Inh %: 102% | Ki: 31.6 nM

O=C(NCc1ccco1)c1ccc2c(c1)N=C(c1ccc(Cl)s1)c1ccccc1S2 [drawing 1383]
Binding rat Inh %: 112% | Ki: 5.01 nM

O=C(NCc1cccs1)c1ccc2c(c1)N=C(c1cccc(F)c1)c1ccccc1S2 [drawing 1384]
Binding rat Inh %: 95% | Ki: 5.01 nM

O=C(NN1CCCCC1)c1ccc2c(c1)N=C(c1ccc(Cl)s1)c1ccccc1S2 [drawing 1385]
Binding rat Inh %: 88% | Ki: 5.01 nM

O=C(NN1CCCCCC1)c1ccc2c(c1)N=C(c1ccc(Cl)cc1F)c1ccccc1S2 [drawing 1386]
Binding rat Inh %: 84% | Ki: 5.01 nM

CCCNC(=O)c1ccc2c(c1)N=C(c1sccc1C)c1ccccc1S2 [drawing 1387]
Binding rat Inh %: 64% | Ki: 31.6 nM

O=C(NCc1ccccc1Br)c1ccc2c(c1)N=C(c1ccc(Cl)cc1)c1ccccc1S2 [drawing 1388]
Ki: 31.6 nM

O=C(NCCc1ccncc1)c1ccc2c(c1)N=C(c1cccc(F)c1)c1ccccc1S2 [drawing 1389]
Binding rat Inh %: 88% | Ki: 31.6 nM

O=C(NCc1cccc(Cl)c1)c1ccc2c(c1)N=C(c1ccc(F)cc1)c1ccccc1[S+]2[O-] (centres unmarked) [drawing 1390]
Ki: 31.6 nM

O=C(NCc1ccc(F)cc1)c1ccc2c(c1)N=C(c1cccc(Cl)c1)c1ccccc1S2 [drawing 1391]
Ki: 5.01 nM

O=C(NCc1ccccc1Br)c1ccc2c(c1)N=C(C1CCCCC1)c1ccccc1S2 [drawing 1392]
Ki: 5.01 nM

C[C@@H]1CCC[C@H](C)N1NC(=O)c1ccc2c(c1)N=C(c1ccc(Cl)c(Cl)c1)c1ccccc1S2 [drawing 1393]
Binding rat Inh %: 114% | Ki: 5.01 nM

O=C(NN1CCCCC1)c1ccc2c(c1)N=C(c1ccc(Cl)c(F)c1)c1ccccc1S2 [drawing 1394]
Binding rat Inh %: 87% | Ki: 5.01 nM

CCCC1=Nc2cc(C(=O)NCC(C)c3ccccc3)ccc2Sc2ccccc21 (centres unmarked) [drawing 1395]
Ki: 31.6 nM

C[C@@H]1CCC[C@H](C)N1NC(=O)c1ccc2c(c1)N=C(c1ccc(Cl)cc1)c1ccccc1S2 [drawing 1396]
Binding rat Inh %: 94% | Ki: 39.8 nM

O=C(NN1CCCCC1)c1ccc2c(c1)N=C(N1CCCCC1)c1ccccc1S2 [drawing 1397]
Ki: 39.8 nM

O=C(NCCc1ccccn1)c1ccc2c(c1)N=C(c1ccc(Cl)cc1F)c1ccccc1S2 [drawing 1398]
Binding rat Inh %: 74% | Ki: 39.8 nM

O=C(NC1CCCC1)c1ccc2c(c1)N=C(c1ccc(Cl)c(Cl)c1)c1ccccc1S2 [drawing 1399]
Binding rat Inh %: 78% | Ki: 5.01 nM

Cc1ccc(CNC(=O)c2ccc3c(c2)N=C(c2sccc2C)c2ccccc2S3)o1 [drawing 1400]
Binding rat Inh %: 102% | Ki: 6.31 nM

O=C(NCc1cccnc1)c1ccc2c(c1)N=C(c1ccc(Cl)c(Cl)c1)c1ccccc1S2 [drawing 1401]
Binding rat Inh %: 102% | Ki: 6.31 nM

O=C(NCc1ccco1)c1ccc2c(c1)N=C(c1ccc(Cl)c(Cl)c1)c1ccccc1S2 [drawing 1402]
Binding rat Inh %: 84% | Ki: 6.31 nM

CCCNC(=O)c1ccc2c(c1)N=C(c1ccc(OC)cc1)c1ccccc1S2 [drawing 1403]
Binding rat Inh %: 80% | Ki: 39.8 nM

CCOCCNC(=O)c1ccc2c(c1)N=C(c1ccc(Br)cc1)c1ccccc1S2 [drawing 1404]
Binding rat Inh %: 81% | Ki: 39.8 nM

CCCCNS(=O)(=O)c1ccc2c(c1)N=C(c1ccc(Cl)cc1)c1ccccc1S2 [drawing 1405]
Binding rat Inh %: 92% | Ki: 39.8 nM

CCCCNC(=O)c1ccc2c(c1)N=C(c1ccc(Cl)cc1Cl)c1ccccc1S2 [drawing 1406]
Binding rat Inh %: 98% | Ki: 39.8 nM

O=C(NCCc1cccnc1)c1ccc2c(c1)N=C(c1ccc(Cl)c(Cl)c1)c1ccccc1S2 [drawing 1407]
Binding rat Inh %: 103% | Ki: 6.31 nM

O=C(NCc1cccc(Cl)c1)c1ccc2c(c1)N=C(c1ccc(F)cc1)c1ccccc1S2(=O)=O [drawing 1408]
Ki: 6.31 nM

O=C(NCc1ccccc1)c1ccc2c(c1)N=C(c1ccc(F)cc1)c1ccccc1S2 [drawing 1409]
Ki: 6.31 nM

CCCCNC(=O)c1cc2c(cc1O)Sc1ccccc1C(c1ccc(Cl)cc1)=N2 [drawing 1410]
Binding rat Inh %: 103% | Ki: 6.31 nM

O=C(NCCc1ccccn1)c1ccc2c(c1)N=C(c1ccc(F)cc1)c1ccccc1S2 [drawing 1411]
Binding rat Inh %: 85% | Ki: 39.8 nM

COc1ccc(C2=Nc3cc(C(=O)NCc4ccncc4)ccc3Sc3ccccc32)cc1 [drawing 1412]
Binding rat Inh %: 67% | Ki: 39.8 nM

O=C(NCc1ccccc1Cl)c1ccc2c(c1)N=C(c1ccccc1F)c1ccccc1S2 [drawing 1413]
Ki: 39.8 nM

O=C(NC1CCC(F)(F)CC1)c1ccc2c(c1)N=C(c1ccccn1)c1ccccc1S2 [drawing 1414]
Binding rat Inh %: 73% | Ki: 39.8 nM

O=C(NCc1ccccc1Cl)c1ccc2c(c1)N=C(c1cccc(Cl)c1)c1ccccc1S2 [drawing 1415]
Ki: 6.31 nM

Cc1ccc(CNC(=O)c2ccc3c(c2)N=C(c2ccc(Cl)cc2)c2ccccc2S3)o1 [drawing 1416]
Binding rat Inh %: 88% | Ki: 6.31 nM

CCCCNC(=O)c1ccc2c(c1)N=C(C1CCCCC1)c1ccccc1S2 [drawing 1417]
Ki: 6.31 nM

O=C(NCCC(F)(F)F)c1ccc2c(c1)N=C(c1ccc(F)cc1)c1ccccc1S2 [drawing 1418]
Binding rat Inh %: 105% | Ki: 6.31 nM

O=C(NCc1ccccn1)c1ccc2c(c1)N=C(c1cccc(Br)c1)c1ccccc1S2 [drawing 1419]
Binding rat Inh %: 79% | Ki: 39.8 nM

O=C(NCc1ccc(Cl)cc1Cl)c1ccc2c(c1)N=C(c1ccc(Cl)cc1)c1ccccc1S2 [drawing 1421]
Ki: 39.8 nM

CC(NC(=O)c1ccc2c(c1)N=C(c1ccccc1F)c1ccccc1S2)c1ccccc1 (centres unmarked) [drawing 1422]
Ki: 39.8 nM

O=C(NN1CCCCC1)c1ccc2c(c1)N=C(c1ccc(Br)cc1)c1ccccc1S2 [drawing 1423]
Binding rat Inh %: 89% | Ki: 6.31 nM

O=C(NN1CCCCC1)c1ccc2c(c1)N=C(c1ccc(Cl)cc1)c1ccccc1S2 [drawing 1424]
Binding rat Inh %: 60% | Ki: 6.31 nM

Cc1cccc(C2=Nc3cc(C(=O)NC4CCC(F)(F)CC4)ccc3Sc3ccccc32)n1 [drawing 1425]
Binding rat Inh %: 90% | Ki: 6.31 nM

CCCCNC(=O)c1ccc2c(c1)N=C(c1ccc(Cl)s1)c1cc(Cl)ccc1S2 [drawing 1426]
Binding rat Inh %: 85% | Ki: 6.31 nM

CCCC1=Nc2cc(C(=O)NCc3ccccc3Cl)ccc2Sc2ccccc21 [drawing 1427]
Ki: 39.8 nM

O=C(NCc1cccc(Cl)c1)c1ccc2c(c1)N=C(N1CCCCC1)c1ccccc1S2(=O)=O [drawing 1428]
Ki: 50.1 nM

CC(C)NC(=O)c1ccc2c(c1)N=C(c1ccc(F)cc1)c1ccccc1S2 [drawing 1429]
Binding rat Inh %: 80% | Ki: 50.1 nM

Cc1csc(CNC(=O)c2ccc3c(c2)N=C(c2ccc(F)cc2)c2ccccc2S3)c1 [drawing 1430]
Binding rat Inh %: 81% | Ki: 50.1 nM

CC(NC(=O)c1ccc2c(c1)N=C(C1CCCCC1)c1ccccc1S2)c1ccccc1 (centres unmarked) [drawing 1431]
Ki: 6.31 nM

COc1ccc(C2=Nc3cc(C(=O)NN4[C@H](C)CCC[C@@H]4C)ccc3Sc3ccccc32)cc1 [drawing 1432]
Binding rat Inh %: 88% | Ki: 6.31 nM

O=C(NN1CCCCCC1)c1ccc2c(c1)N=C(c1ccc(F)cc1)c1ccccc1S2 [drawing 1433]
Binding rat Inh %: 112% | Ki: 6.31 nM

O=C(NCCCc1ccccc1)c1ccc2c(c1)N=C(c1ccc(Cl)cc1)c1ccccc1S2 [drawing 1434]
Ki: 6.31 nM

O=C(NCc1ccco1)c1ccc2c(c1)N=C(c1ccccc1F)c1ccccc1S2 [drawing 1435]
Binding rat Inh %: 83% | Ki: 50.1 nM

O=C(NC1CCCC1)c1ccc2c(c1)N=C(c1ccc(Cl)cc1)c1ccccc1S2 [drawing 1436]
Binding rat Inh %: 89% | Ki: 50.1 nM

CCCC1=Nc2cc(C(=O)NC3CCC(C)CC3)ccc2Sc2ccccc21 (centres unmarked) [drawing 1437]
Ki: 50.1 nM

COc1ccc(C2=Nc3cc(C(=O)NCc4cccnc4)ccc3Sc3ccccc32)cc1 [drawing 1438]
Binding rat Inh %: 60% | Ki: 50.1 nM

CCN(CCNC(=O)c1ccc2c(c1)N=C(N1CCCCC1)c1ccccc1S2)c1ccccc1 [drawing 1439]
Ki: 6.31 nM
